Patent US20250368687A1, “SHORT SYNTHETIC PEPTIDES AND USES THEREOF IN THE TREATMENT OF ENTEROVIRUS INFECTION” (CITY UNIVERSITY OF HONG KONG, priority 2024, published 2025)

How the values were obtained:
[1] = tested on: 2Apro-induced relocalization of Hsp27 and hnRNP A1 in RD cells; experiment: Immunofluorescence colocalization assay of 2Apro-induced relocalization of Hsp27 and hnRNP A1; format: cell-based; conditions: 25 μM for 2 hours, transfected with 2Apro for 24 hours
Experimental: FIGS. 9A-9B Peptide S78 blocks the 2A^pro-induced relocalization of Hsp27 and hnRNP A1. RD cells on the coverslips were treated with peptides (S78, S78A, and S82A) at the concentration of 25 μM for 2 hours, and then transfected with 2A^pro for 24 hours. The cells were fixed and stained with anti-Hsp27and anti-hnRNPAI, followed by Alexa Fluor 488-conjugated anti-rabbit antibody and Alexa Fluor 594-conjugated anti-mouse antibody. The nuclei were stained with Hoechst. The images were captured by Nikon A1HD25 Confocal Microscope. The JACoP-plugin of the extended ImageJ version Fiji was used to compute the M1 colocalization coefficient, in which (FIG. 9A) is M1 colocalization coefficient for the fraction of Hsp27 in Hoechst and (FIG. 9B) is the M1 colocalization coefficient for the fraction of hnRNP A1 in Hoechst. Statistical analyses were carried out using Student's t-test. *: p<0.05, **: p<0.01, ***: p<0.001. Data are expressed as mean ±SD.
The cells on coverslips were infected with EV-A71 at the multiplicity of infection (MOI) of 40 for 6 hrs to assure the high efficiency of viral infection. Then the cells were fixed by 4% paraformaldehyde for 20 min, permeabilized by 0.5% Triton X-100 for 15 min, blocked with 5% BSA for 2 hrs, and stained by incubation with anti-Hsp27 (GTX101145) and anti-hnRNP A1 (sc-32301) antibody, then with Alexa Fluor 488 conjugated anti-rabbit antibody and Alexa Fluor 594 conjugated anti-mouse antibody respectively. After washing four times with 0.2% Triton X-100, the nuclei were stained with DAPI or Hoechst for 5 min. The images were captured by a Nikon A1HD25 High speed and Large Field of View Confocal Microscope. Colocalization analysis was conducted using the JACoP-plugin of the extended ImageJ version Fiji. The M1 colocalization coefficient was computed to illustrate the colocalization levels of Hsp27 and hnRNP A1 overlapped with Hoechst.

[2] = tested on: EV-A71 VP1; experiment: Western blot of EV-A71 VP1 level in RD cells; format: cell-based; conditions: for EV-A71 VP1 protein level (in words): indicated concentrations
Experimental: FIGS. 10A-10K. Peptide S78 inhibited EV-A71 replication and propagation. (FIG. 10A) RD cells were pre-treated with peptides S78 or for 2 hours and infected with EV-A71 at the MOI of 10 for 6 hours. Cell lysates were collected for western blot assay. Hsp27 phosphorylation on Ser 15, 78, 82 were detected by specific antibodies. β-Actin were detected as internal control. (FIG. 10B) Densitometric analysis of FIG. 9A. (FIG. 10C) HEK 293T cells were pre-treated with peptides S78 or S78A at the concentration of 25 μM for 2 hours and then co-transfected with Hsp27-WT plasmid (800 ng), pIRES reporter plasmid (200 ng) and 2A^pro-expressing plasmid or 2AC110A-expressing plasmid (200 ng) for 24 h, then the luciferase activity was measured. (FIG. 10D-10E) RD cells were treated with peptides S78 or S78A and then infected with EV-A71. EV-A71 VP1 were detected. (FIG. 10F) RD cells were treated with peptides and then infected with EV-A71 at the MOI of 1 for 12 hours. The EV-A71-induced CPE was captured. (FIG. 10G-10H) Intracellular viral RNA was extracted and quantified by qPCR. (FIG. 10I) Densitometric analysis FIG. 9D-E. (FIG. 10J) RD cells were treated with peptides S78 or and then infected with EV-A71 at the MOI of 1 for 12 hours. Extracellular viral RNA was extracted and quantified by qPCR. (FIG. 10K) Viral titration was calculated by TCID50. The Statistical analyses were carried out using Student's t-test. *: p<0.05, **: p<0.01, ***: p<0.001. Data are expressed as mean ±SD.
FIGS. 11A-11G Inhibition of EV-A71 Protein Translation and Viral Reproduction by peptide S82A. (FIG. 11A) HEK 293T cells were pre-treated with peptides NC, S78, S78A, S82A, or S78-3A at the concentration of 25 μM for 2 hours and then co-transfected with Hsp27-WT plasmid (800 ng), pIRES reporter plasmid (200 ng) and 2A^pro-expressing plasmid for 24 h, then the luciferase activity was measured. (FIG. 11B) RD cells were pre-treated with peptides NC at indicated concentrations for 2 hours and infected with EV-A71 at the MOI of 1 for 9 hours. Intracellular viral RNA was extracted and quantified by qPCR. (FIG. 11C-11E) RD cells were treated with peptides NC, S82A, or S78-3A at indicated concentrations for 2 hours and then infected with EV-A71 at the MOI of 1 for 9 hours. Cell lysates were collected for western blot assay. EV-A71 VP1 were detected. β-Actin was detected as an internal control. (FIG. 11F) Densitometric analysis of the EV-A71 VP1 level in FIG. S7C-E was quantified and normalized with β-Actin using ImageJ. (FIG. 11G) RD cells were treated with peptides S78, S78A, S82A, or S78-3A at the concentration of 25 μM for 2 hours and then infected with EV-A71 at the MOI of 0.1 for 24 hours. Viral titration was calculated. The Statistical analyses were carried out using Student's t-test. *: p<0.05, **: p<0.01, ***: p<0.001. Data are expressed as mean ±SD.
After cell lysis in Nonidet-P40 (NP-40) buffer, the cell lysates were centrifuged, and the concentration was determined by Bradford assay (Bio-Rad). 20 μg of protein was used for 12% SDS-PAGE and transferred onto polyvinylidene fluoride membrane (PVDF) (GE, MA, USA). Following 5% bovine serum albumin (BSA) blocking for 1 hrs, the membrane was incubated with antibodies (1:1000) against Hsp27 (sc-13132), pHsp27-Ser15 (ab76313), pHsp27-Ser78 (ADI-SPA-523), pHsp27-Ser82 (ab155987), VP1 (GTX132339), β-Actin (sc-47778), hnRNP A1 (sc-32301), or GAPDH (sc-32233) overnight in 4° C. After secondary antibodies (HRP-conjugated Affinipure Goat Anti-Mouse IgG(H+L), SA00001-1, and HRP-conjugated Affinipure Goat Anti-Rabbit IgG(H+L), SA00001-2) incubation for 1 hrs, the protein was visualized with a chemiluminescence reagent (PerkinElmer, MA, USA) on Bio-Rad Chemidoc Imaging System. The protein bands were quantified by densitometry with ImageJ if necessary.

Row | Substance | 2Apro-induced relocalization of Hsp27 and hnRNP A1 [1] | EV-A71 VP1 protein level at 50 μM (in words) ([2]; 50 μM) | reduction of VP1 level (densitometric assay) ([2]; 50 μM) | EV-A71 VP1 protein level (in words) [2]
1 | Ac-RKKRRQRRRAYSRALSRQLSS-NH2 [S78] | almost completely blocked | almost undetectable level | over 99% | dramatically decreased
2 | Ac-RKKRRQRRRAYSRALARQLSS-NH2 [S78A] | still showed a certain cellular redistribution |  | about 60% | much weaker
3 | Ac-RKKRRQRRRYSREANQPKPSPKRESGEE-NH2 [NC, reference compound] |  |  |  | no effect
